Assay results as given in ChEMBL document CHEMBL1201862, “PubChem BioAssay data set” (2004).
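Method: 48-hour compound exposure of cells in 96-well plates, five concentrations, linear interpolation of endpoints. GI50 marks 50% less growth.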 The source made the active and inactive calls. No stated cut-off is given here; in the data, active = GI50 up to about 1.1 µM and inactive = higher.

Experiments:
Assay in all cases: DTP human tumour cell line panel, 48 h
[1] = tested on: Hs-578T
[2] = tested on: SR
[3] = tested on: A549
[4] = tested on: SN12C
[5] = tested on: MCF7
[6] = tested on: NCI/ADR-RES
[7] = tested on: MDA-MB-231
[8] = tested on: OVCAR-4
[9] = tested on: SF-268
[10] = tested on: EKVX
[11] = tested on: A498
[12] = tested on: SW-620
[13] = tested on: KM12
[14] = tested on: MDA-N
[15] = tested on: SK-MEL-2
[16] = tested on: SK-MEL-28
[17] = tested on: SK-MEL-5
[18] = tested on: Malme-3M
[19] = tested on: HOP-92
[20] = tested on: MDA-MB-435

Compound: O/N=N/c1ccc([SH2]c2ccc3ccccc3c2)cn1
- GI50 [1]: 43 µM (inactive)
- GI50 [2]: 21.8 µM (inactive)
- GI50 [3]: 33 µM (inactive)
- GI50 [4]: 20.5 µM (inactive)
- GI50 [5]: 17.9 µM (inactive)
- GI50 [6]: 19.1 µM (inactive)
- GI50 [7]: 30.1 µM (inactive)
- GI50 [8]: > 100 µM (inactive)
- GI50 [9]: 22.3 µM (inactive)
- GI50 [10]: 23.6 µM (inactive)
- GI50 [11]: 57.9 µM (inactive)
- GI50 [12]: 28.3 µM (inactive)
- GI50 [13]: 41.4 µM (inactive)
- GI50 [14]: 31.4 µM (inactive)
- GI50 [15]: 15.4 µM (inactive)
- GI50 [16]: 32.7 µM (inactive)
- GI50 [17]: 16.3 µM (inactive)
- GI50 [18]: 0.955 µM (active)

Compound: Cc1cn(CC2=NCCCN2)c(=O)[nH]c1=O
- GI50 [1]: > 100 µM (inactive)
- GI50 [2]: > 100 µM (inactive)
- GI50 [3]: > 100 µM (inactive)
- GI50 [19]: > 100 µM (inactive)
- GI50 [4]: > 100 µM (inactive)
- GI50 [5]: > 100 µM (inactive)
- GI50 [6]: > 100 µM (inactive)
- GI50 [7]: > 100 µM (inactive)
- GI50 [9]: > 100 µM (inactive)
- GI50 [10]: > 100 µM (inactive)
- GI50 [11]: > 100 µM (inactive)
- GI50 [12]: > 100 µM (inactive)
- GI50 [14]: > 100 µM (inactive)
- GI50 [15]: > 100 µM (inactive)
- GI50 [16]: > 100 µM (inactive)
- GI50 [17]: > 100 µM (inactive)
- GI50 [18]: > 100 µM (inactive)

Compound: CC1(C)COC(c2ccc(C(=O)c3ccc(Cl)cc3)cc2)=N1
- GI50 [1]: > 100 µM (inactive)
- GI50 [3]: 83 µM (inactive)
- GI50 [20]: 44.5 µM (inactive)
- GI50 [19]: 85.1 µM (inactive)
- GI50 [4]: > 100 µM (inactive)
- GI50 [5]: 86.5 µM (inactive)
- GI50 [6]: 92.7 µM (inactive)
- GI50 [7]: > 100 µM (inactive)
- GI50 [9]: > 100 µM (inactive)
- GI50 [10]: 44.6 µM (inactive)
- GI50 [12]: > 100 µM (inactive)
- GI50 [13]: > 100 µM (inactive)
- GI50 [14]: > 100 µM (inactive)
- GI50 [15]: > 100 µM (inactive)
- GI50 [16]: > 100 µM (inactive)
- GI50 [17]: 7.23 µM (inactive)
- GI50 [18]: 42.5 µM (inactive)

Compound: Nc1c(-c2nc3ccccc3s2)c2ccc([N+](=O)[O-])cc2c(=O)n1-c1cccc(C(=O)O)c1
- GI50 [1]: 27.5 µM (inactive)
- GI50 [2]: 15.8 µM (inactive)
- GI50 [3]: 34.9 µM (inactive)
- GI50 [20]: 35.6 µM (inactive)
- GI50 [19]: 24.2 µM (inactive)
- GI50 [4]: 30.3 µM (inactive)
- GI50 [6]: 33.1 µM (inactive)
- GI50 [7]: 17.9 µM (inactive)
- GI50 [8]: 31.9 µM (inactive)
- GI50 [9]: 35.5 µM (inactive)
- GI50 [12]: 29.1 µM (inactive)
- GI50 [13]: 40.6 µM (inactive)
- GI50 [14]: 45.1 µM (inactive)
- GI50 [15]: 20.9 µM (inactive)
- GI50 [16]: 21.4 µM (inactive)
- GI50 [17]: 26.7 µM (inactive)

Compound: CN(C)/N=N/c1nc2c(c(=O)n(C)c(=O)n2C)n1CC(O)CO (configuration not stated)
- GI50 [1]: > 100 µM (inactive)
- GI50 [3]: > 100 µM (inactive)
- GI50 [20]: > 100 µM (inactive)
- GI50 [4]: > 100 µM (inactive)
- GI50 [5]: 10.6 µM (inactive)
- GI50 [6]: > 100 µM (inactive)
- GI50 [7]: > 100 µM (inactive)
- GI50 [8]: > 100 µM (inactive)
- GI50 [9]: > 100 µM (inactive)
- GI50 [10]: > 100 µM (inactive)
- GI50 [12]: > 100 µM (inactive)
- GI50 [13]: > 100 µM (inactive)
- GI50 [14]: > 100 µM (inactive)
- GI50 [15]: > 100 µM (inactive)
- GI50 [16]: > 100 µM (inactive)
- GI50 [17]: > 100 µM (inactive)
- GI50 [18]: > 100 µM (inactive)

Compound: COc1cc(OC)c(C/C=C/c2ccccc2)cc1O
- GI50 [1]: 16.8 µM (inactive)
- GI50 [3]: 19.4 µM (inactive)
- GI50 [20]: 17 µM (inactive)
- GI50 [19]: 13.6 µM (inactive)
- GI50 [4]: 16 µM (inactive)
- GI50 [6]: 14.5 µM (inactive)
- GI50 [7]: 17.9 µM (inactive)
- GI50 [8]: 14 µM (inactive)
- GI50 [9]: 16.7 µM (inactive)
- GI50 [10]: 17.2 µM (inactive)
- GI50 [11]: 14.8 µM (inactive)
- GI50 [12]: 18.9 µM (inactive)
- GI50 [13]: 17.7 µM (inactive)
- GI50 [14]: 18.1 µM (inactive)
- GI50 [15]: 19.4 µM (inactive)
- GI50 [16]: 16.6 µM (inactive)
- GI50 [17]: 15.8 µM (inactive)
- GI50 [18]: 16.2 µM (inactive)

Compound: Cc1ccc(C(=O)C2=CN=C3C(=O)N(c4ccccc4)N(C)C3(C)C2=N)cc1 (configuration not stated)
- GI50 [2]: > 100 µM (inactive)
- GI50 [3]: > 100 µM (inactive)
- GI50 [20]: > 100 µM (inactive)
- GI50 [19]: > 100 µM (inactive)
- GI50 [4]: > 100 µM (inactive)
- GI50 [5]: > 100 µM (inactive)
- GI50 [6]: > 100 µM (inactive)
- GI50 [7]: > 100 µM (inactive)
- GI50 [8]: > 100 µM (inactive)
- GI50 [10]: > 100 µM (inactive)
- GI50 [11]: > 100 µM (inactive)
- GI50 [12]: > 100 µM (inactive)
- GI50 [13]: > 100 µM (inactive)
- GI50 [14]: > 100 µM (inactive)
- GI50 [15]: > 100 µM (inactive)
- GI50 [17]: > 100 µM (inactive)
- GI50 [18]: > 100 µM (inactive)

Compound: CCOP(=O)(OCC)C(Nc1ccc(Br)cc1)c1cccc([N+](=O)[O-])c1 (configuration not stated)
- GI50 [1]: 21.3 µM (inactive)
- GI50 [2]: 18.1 µM (inactive)
- GI50 [3]: 15.8 µM (inactive)
- GI50 [20]: 16.1 µM (inactive)
- GI50 [19]: 20.7 µM (inactive)
- GI50 [4]: 18.8 µM (inactive)
- GI50 [6]: 13.5 µM (inactive)
- GI50 [7]: 15 µM (inactive)
- GI50 [8]: 21.4 µM (inactive)
- GI50 [9]: 17.7 µM (inactive)
- GI50 [10]: 2.99 µM (inactive)
- GI50 [11]: 13.3 µM (inactive)
- GI50 [12]: 16.9 µM (inactive)
- GI50 [13]: 12.6 µM (inactive)
- GI50 [14]: 19.2 µM (inactive)
- GI50 [15]: 16.7 µM (inactive)
- GI50 [16]: 15.2 µM (inactive)
- GI50 [17]: 14.6 µM (inactive)
- GI50 [18]: 18.2 µM (inactive)

Compound: Cc1cc2c(cc1O)CC[C@@H]1[C@@H]2CC[C@]2(C)[C@@H](O)CC[C@@H]12
- GI50 [1]: 2.51 µM (inactive)
- GI50 [2]: 1.83 µM (inactive)
- GI50 [3]: 8.02 µM (inactive)
- GI50 [19]: 14.9 µM (inactive)
- GI50 [4]: 13.3 µM (inactive)
- GI50 [5]: 8.85 µM (inactive)
- GI50 [6]: 5.77 µM (inactive)
- GI50 [7]: 9.38 µM (inactive)
- GI50 [8]: 12.4 µM (inactive)
- GI50 [9]: 15.5 µM (inactive)
- GI50 [11]: 18.7 µM (inactive)
- GI50 [12]: 4.28 µM (inactive)
- GI50 [13]: 4.52 µM (inactive)
- GI50 [14]: 1.9 µM (inactive)
- GI50 [15]: 5.48 µM (inactive)
- GI50 [16]: 10.8 µM (inactive)
- GI50 [17]: 4.67 µM (inactive)
- GI50 [18]: 6.73 µM (inactive)

Compound: O=C1C(Cl)=C(N[C@@H](Cc2ccccc2)C(=O)OCc2ccccc2)C(=O)c2c(O)ccc(O)c21
- GI50 [1]: 4.89 µM (inactive)
- GI50 [3]: 3.47 µM (inactive)
- GI50 [20]: 3.17 µM (inactive)
- GI50 [19]: 6.3 µM (inactive)
- GI50 [4]: 3.93 µM (inactive)
- GI50 [6]: 1.88 µM (inactive)
- GI50 [7]: 2.55 µM (inactive)
- GI50 [8]: 3.31 µM (inactive)
- GI50 [9]: 2.91 µM (inactive)
- GI50 [10]: 7.18 µM (inactive)
- GI50 [11]: 7.33 µM (inactive)
- GI50 [12]: 5.65 µM (inactive)
- GI50 [13]: 4.45 µM (inactive)
- GI50 [14]: 2.89 µM (inactive)
- GI50 [15]: 6.7 µM (inactive)
- GI50 [16]: 6.34 µM (inactive)
- GI50 [17]: 3.24 µM (inactive)
- GI50 [18]: 5.35 µM (inactive)

Compound: CC(C)(C)OC(=O)NC1CCCC1C(=O)C1=CCCC1 (configuration not stated)
- GI50 [1]: 44 µM (inactive)
- GI50 [2]: 90.8 µM (inactive)
- GI50 [3]: > 100 µM (inactive)
- GI50 [20]: 90.6 µM (inactive)
- GI50 [19]: > 100 µM (inactive)
- GI50 [4]: 53.3 µM (inactive)
- GI50 [6]: > 100 µM (inactive)
- GI50 [7]: 82.8 µM (inactive)
- GI50 [8]: 49.1 µM (inactive)
- GI50 [9]: > 100 µM (inactive)
- GI50 [11]: > 100 µM (inactive)
- GI50 [12]: > 100 µM (inactive)
- GI50 [13]: 92 µM (inactive)
- GI50 [14]: 53 µM (inactive)
- GI50 [15]: > 100 µM (inactive)
- GI50 [16]: > 100 µM (inactive)
- GI50 [17]: 65 µM (inactive)
